Assay results: patent publication US20250092269A1, “ANTI-BIOFOULING COMPOSITION” (Montana Technological University, priority 2023, published 2025)

Experiments:
P. aeruginosa (PAO1) = experiment: Biofilm growth on filtration membranes in bench scale nanofiltration system, 4-hour operation (CLSM); assay type: cell-based, Pseudomonas aeruginosa
Protocol: Polymeric Component: A polymer blend for electrospinning was prepared comprising 3 wt. % PEG (8,000 MW, Sigma Aldrich) and 8.9 wt. % PCL (80,000 MW, Sigma Aldrich) in chloroform. The PEG/PCL polymer blend was stirred with a Teflon coated stir bar at 80° C. until no visible polymer weas present.
Anti-Quorum Sensing Molecules: The polymeric component comprising the polymer blend was seeded with Urolithin A at a concentration of 200 μg/mL during mixing. Fiber mats comprising Urolithin A were stored at 4-8° C. for preservation prior to application.
Electrospinning: The polymeric component comprising the polymer blend was pumped continuously by a syringe pump at a fixed rate of 0.250 mL/hour to a vertical Spraybase electrospinner equipped with a 22-guage needle at a voltage of 6.6 kV and grounded equidistant copper-plated parallel electrodes for uniaxially aligned deposition (parallel gap electrospinning). A separation distance of 4 cm between the needle and grounded electrodes were maintained for 20 minutes while the fiber mat was fabricated. Fiber mats were rotated at 10 minutes to achieve a crosshatch filter pattern. Fibers were then placed onto MCE membranes and investigated for their controlled release of the anti-QS molecules. […]

biofilm [1] = experiment: Biofilm growth on membranes with Urolithin A fibers at 50, 100, 200 μg/mL (CLSM); assay type: cell-based; conditions: PCL/PEG fibers with Urolithin A 50, 100, 200 μg/mL; FIG. 6A-6D
Protocol: (§1) Bench Scale Nanofiltration System: A bench scale nanofiltration system for monitoring water output efficiencies and biofilm formation on MCE membranes was used as illustrated in FIG. 2.
In this example, biofouling on filtration membranes was investigated by comparing membranes comprising a filter coating associated with one or more anti-QS Urolithin A molecules having concentrations of 50 μg/mL, 100 μg/mL, and 200 μg/mL.
FIG. 6A is a confocal microscopy (CLSM) image showing the biofilm growth on an unmodified control membrane. FIG. 6B is a confocal microscopy (CLSM) image showing the biofilm growth on a membrane comprising electrospun PCL/PEG fibers associated with one or more anti-QS Urolithin A molecules (50 μg/mL). FIG. 6C is a confocal microscopy (CLSM) image showing the biofilm growth on a membrane comprising electrospun PCL/PEG fibers associated with one or more anti-QS Urolithin A molecules (100 μg/mL). FIG. 6D is a confocal microscopy (CLSM) image showing the biofilm growth on a membrane comprising electrospun PCL/PEG fibers associated with one or more anti-QS Urolithin A molecules (200 μg/mL).

[2] = Membrane performance (water quantity output) in bench scale nanofiltration system; conditions: electrospun 3:1 PCL:PEG fibers with Urolithin A 200 μg/mL; 4-hour operation
From the text: as §1
In this example, biofouling on filtration membranes was investigated by examining anti-quorum sensing molecules in P. aeruginosa (PAO1). More specifically, a membrane comprising an unmodified membrane (referred to “MCE Control”); a membrane (referred to as “Control Fibers”) comprising a filter coating, which was deposited by electrospinning fibers comprising a polymer blend (3:1 polycaprolactone (PCL) to polyethylene glycol (PEG)); and a membrane (referred to as “Anti-QS Fibers” comprising a filter coating, which was deposited by electrospinning fibers comprising a polymer blend (3:1 polycaprolactone (PCL) to polyethylene glycol (PEG)) associated with one or more anti-QS molecules (200 μg/mL). Biofilm growth over a 4-hour operation was investigated and compared for the MCE Control, Control Fibers, and Anti-QS Fibers.

biofilm [3] = experiment: Biofilm biovolume after 4-hour filtration test, furanone C-30 fibers vs control fibers (SEM); assay type: cell-based; conditions: furanone C-30 control-released from 3:1 PCL/PEG fibers on MCE filter
From the text: as §1
In this example, a membrane comprising a filter coating, which was deposited by electrospinning fibers comprising a polymer blend (3:1 polycaprolactone (PCL) to polyethylene glycol (PEG)) associated with one or more anti-QS molecules furanone C-30 was compared to a control membrane comprising a filter coating, which was deposited by electrospinning fibers comprising a polymer blend (3:1 polycaprolactone (PCL) to polyethylene glycol (PEG).
FIG. 8A is a scanning electron micrograph image showing the biofilm biovolume after a 4-hour filtration test of a MCE filter comprising electrospun PCL/PEG fibers. FIG. 8B is a scanning electron micrograph image showing the biofilm biovolume after a 4-hour filtration test of a MCE filter comprising electrospun PCL/PEG fibers associated with one or more anti-QS furanone C-30 molecules.

## O=c1oc2cc(O)ccc2c2ccc(O)cc12 [Urolithin A]
P. aeruginosa (PAO1); electrospun 3:1 PCL:PEG coating with Urolithin A 200 μg/mL
  reduction of biofilm formation during filtration compared to the MCE Control: 83.48%
P. aeruginosa (PAO1); electrospun 3:1 PCL:PEG fibers with Urolithin A 200 μg/mL
  increase of biovolume reduction by controlled release of anti QS molecules: 26.05%
Biofilm [1]
  biofilm biovolume vs concentration of Urolithin A in fibers: biofilm biovolume reduction corresponding to the increased concentrations
[2]
  increase of flux: 52.78%

## O=C1C=C(Br)/C(=C/Br)O1 [furanone C-30]
Biofilm [3]
  reduction in biovolume relative to the control membrane (PCL/PEG fibers): 57.5%
